Measurements taken from patent publication US20100311700A1, “Transdermal preparation for external use containing nonsterioidal antiinflammatory/analgesic agent” (Hisamitsu Pharmaceutical Co., Inc., priority 2005, published 2010).

Key:
Format in all cases: in vivo
Balb/c mice [1] = experiment: Murine auricular photo-irradiation test (ear edema after 2% ketoprofen + UVA); settings: UVA 40 J/cm^2, toward the KP group
Procedure: The following experiments were carried out by referring to the method of Gerberick et al. (Food Chem. Toxicol., 27, 813-819 (1989) and modifying a part of it. Namely, as a test animal, Balb/c mice (female, 9-11 weeks old) were used. Each test substance {4-tert-butyl-4′-methoxydibenzoylmethane (BM-DBM), 2-ethylhexyl dimethoxybenzylidenedioxoimidazolidinepropionate (DB-D1H), terephthalylidene-3,3′-dicamphor-10,10′-disulfonic acid (TCDCS) and n-hexyl 2-(4-dimethylamino-2-hydroxybenzoyl)benzoate (DHB-BH)} which were dissolved in ethanol and 2% ketoprofen (KP) were applied on the auricle, and followed by WA irradiation at 40 J/cm^2.
The ear thickness was measured 24 hours after the WA irradiation, and an increase from the ear thickness prior to the start of the test was calculated.

Balb/c mice [2] = experiment: Murine auricular lymph node test 2 (modified LLNA, lymph node weight after ketoprofen + UVA); settings: test substance 2% with KP 2%; UVA 20 J/cm^2, three days; lymph node removed after 5 days; toward the KP group
Procedure: Detection of a skin symptom due to an immunological mechanism resulting from KP upon photo-irradiation was carried out by other modified method of the above LLNA. Namely, as a test animal, Balb/c mice (female, 8-12 weeks old) were used. A test substance of 2% concentration and KP of 2% concentration which were dissolved in acetone—olive oil (4:1, v/v) or acetone—olive oil—physiological saline (3:3:1, v/v) were applied on the back of the pinna, and followed by UVA irradiation at 20 J/cm^2. This treatment inducing sensitization was carried out for three days consecutively. After 5 days from the start of the sensitization, the murine auricular lymph node was removed, and pooled in PBS. Then, PBS attached to the removed lymph node was sufficiently wiped up, and weighed. […]

Balb/c mice [3] = experiment: Murine local lymph node test 1 (modified LLNA, 3H-TdR uptake after ketoprofen + UVA); settings: UVA 20 J/cm^2, 3 days, toward the KP group
Procedure: Detection of a skin symptom due to an immunological mechanism resulting from KP upon photo-irradiation was carried out by a modified method of Murine Local Lymph Node Assay (LLNA) proposed by The Interagency Coordinating Committee on the Validation of Alternative Methods (ICCVAM). Namely, as a test animal, Balb/c mice (female, 8-12 weeks old) were used. The test substance {4-tert-butyl-4′-methoxydibenzoylmethane (BM-DBM)} and 2% ketoprofen (KP) which were dissolved in acetone—olive oil (4:1, v/v) were applied on the back of the pinna, and followed by UVA irradiation at 20 J/cm^2. This treatment inducing sensitization was carried out for 3 days consecutively. After 5 days from the start of sensitization, a ^3H-methylthymidine (3H-TdR)/PBS solution of 20μCi per mouse was injected in the tail vein, and after 5 hours, the auricular lymph node was removed. The removed lymph node was made into a single lymph cell suspension by a cell strainer, then washed two times with PBS, and let it stand in 5% trichloroacetic acid (TCA) solution at 4° C. overnight to precipitate DNA. The precipitate was suspended in 1 ml of 5% TCA solution and a radiation activity was measured by a liquid scintillation counter.

[4] = system: Hartley strain guinea pig; experiment: Photo-sensitization test using guinea pigs (modified Adjuvant and Strip method); settings: 2% test substance with 2% KP in ethanol, UVA 10 J/cm^2, toward the KP group
Procedure: An effect exerted by the UV blocker to skin symptoms due to an immunological mechanism resulting from KP upon photo-irradiation was further examined by a modified method of the Adjuvant and Strip method of Sato et al. (Nishinihon Hifuka, 42, 831-837 (1980)) using guinea pigs. That is, the cervical back of a white female Hartley strain guinea pig (eight guinea pigs per group) was depilated, and the adjuvant was administered to four corners of 2×2 cm, and then, 2% ketoprofen (KP) solution, or 2% KP and 2% test substance {4-tert-butyl-4′-methoxydibenzoylmethane (BM-DBM)} solution, which were dissolved in ethanol, were applied on the above parts of 2×2 cm under an open condition, and after 1 hour, UVA (10 J/cm^2) was irradiated. This treatment of sensitization induction was carried out successively for 5 days. […] Skin reactions after 24 hours and 48 hours from the irradiation were evaluated according to the above standard of Sato et al. The suppression effect by BM-DBM to the skin symptoms due to the immunological mechanism resulting from KP upon photo-irradiation was evaluated by the erythema/edema suppression ratio (%) toward the KP group.

[5] = test substance conc. 0.5% in ethanol with 2% ketoprofen on the auricle, ear thickness 24 hours after irradiation

Compound | Ear edema suppression ratio (%) (Balb/c mice [1]; [5]) | Suppression ratio (%) in the weight increase of the auricular lymph node (Balb/c mice [2]) [%] | also measured
2-ethylhexyl dimethoxybenzylidenedioxoimidazolidinepropionate [DB-DIH] | 34 |  | 
CC1(C)C2CCC1(CS(=O)(=O)O)C(=O)/C2=C\c1ccc(/C=C2/C(=O)C3(CS(=O)(=O)O)CCC2C3(C)C)cc1 [TP-DCS, terephthalylidene-3,3′-dicamphor-10,10′-disulfonic acid] | 65 | 63 | 
CCCCCCOC(=O)c1ccccc1C(=O)c1ccc(N(C)C)cc1O [DHB-BH, n-hexyl 2-(4-dimethylamino-2-hydroxybenzoyl)benzoate] | 84 |  | 
CCCCC(CC)COC(=O)C=Cc1ccc(OC)cc1 (centres unmarked) [2-Ethylhexyl 4-methoxycinnamate] |  | 20 | 
COc1ccc(C(=O)CC(=O)c2ccc(C(C)(C)C)cc2)cc1 [BM-DBM, 4-tert-butyl-4′-methoxydibenzoylmethane] | 98 | 88 | ^3H-TdR uptake suppression ratio(%) (Balb/c mice [3]; BM-DBM concentration 0.06% with 2% ketoprofen in acetone-olive oil (4:1), auricular lymph node): 30%; ^3H-TdR uptake suppression ratio(%) (Balb/c mice [3]; BM-DBM concentration 0.13% with 2% ketoprofen): 51%; ^3H-TdR uptake suppression ratio(%) (Balb/c mice [3]; BM-DBM concentration 0.25% with 2% ketoprofen): 24%; ^3H-TdR uptake suppression ratio(%) (Balb/c mice [3]; BM-DBM concentration 0.50% with 2% ketoprofen): 94%; ^3H-TdR uptake suppression ratio(%) (Balb/c mice [3]; BM-DBM concentration 1.00% with 2% ketoprofen): 99%; Erythema/Edema suppression ratio (%) After 24 hrs ([4]; skin reaction 24 hours after photo-induction irradiation): 69%; Erythema/Edema suppression ratio (%) After 48 hrs ([4]; skin reaction 48 hours after photo-induction irradiation): 74%; Ear edema suppression ratio (%) (Balb/c mice [1]; test substance conc. 0.1% with 2% ketoprofen, 24 hours after irradiation): 41%; Ear edema suppression ratio (%) (Balb/c mice [1]; test substance conc. 0.3% with 2% ketoprofen, 24 hours after irradiation): 81%
CCOC(=O)c1ccc(N)cc1 [Ethyl 4-aminobenzoate] |  | 43 | 
COc1ccc(C(=O)c2ccccc2)c(O)c1 [Oxybenzone] |  | 56 | 
O=C(OCCO)c1ccccc1O [Ethylene glycol monosalicylate, reference compound] |  | −68 | 
O=C(c1ccc(O)cc1O)c1ccc(O)cc1O [2,2′,4,4′-Tetrahydroxybenzophenone, reference compound] |  | −32 | 
Nc1ccc(C(=O)O)cc1 [4-Aminobenzoic acid, reference compound] |  | −39 | 
O=C(Oc1ccccc1)c1ccccc1O [Phenyl salicylate, reference compound] |  | 0 | 
COc1ccc(O)c(-n2nc3ccccc3n2)c1 [2-(2′-Hydroxy-5′-methoxyphenyl)-bezotriazole] |  | 4 | 
